# According to PMC9123836 (Bioorganic & Medicinal Chemistry, 2022):
# Key:
# [1] = test system: SARS-CoV-2 spike pseudovirus; assay: organism not typed; assay type: cell-based
# [2] = biological target: T1, α-glucosidase (Saccharomyces cerevisiae, UniProt P53341); assay: enzyme kinetic study; assay type: biochemical; conditions: Lineweaver-Burk plot
# [3] = test system: LO2 cells; assay: cytotoxicity against normal cells; assay type: cell-based, human; conditions: at the 100 µM level; MTT, 72 h
# [4] = biological target: T1, α-glucosidase; assay: in vitro α-glucosidase inhibitory activity; assay type: biochemical; conditions: mean ± SD (n = 3); test concentration not given
# T1 sequence (P53341 whole entry): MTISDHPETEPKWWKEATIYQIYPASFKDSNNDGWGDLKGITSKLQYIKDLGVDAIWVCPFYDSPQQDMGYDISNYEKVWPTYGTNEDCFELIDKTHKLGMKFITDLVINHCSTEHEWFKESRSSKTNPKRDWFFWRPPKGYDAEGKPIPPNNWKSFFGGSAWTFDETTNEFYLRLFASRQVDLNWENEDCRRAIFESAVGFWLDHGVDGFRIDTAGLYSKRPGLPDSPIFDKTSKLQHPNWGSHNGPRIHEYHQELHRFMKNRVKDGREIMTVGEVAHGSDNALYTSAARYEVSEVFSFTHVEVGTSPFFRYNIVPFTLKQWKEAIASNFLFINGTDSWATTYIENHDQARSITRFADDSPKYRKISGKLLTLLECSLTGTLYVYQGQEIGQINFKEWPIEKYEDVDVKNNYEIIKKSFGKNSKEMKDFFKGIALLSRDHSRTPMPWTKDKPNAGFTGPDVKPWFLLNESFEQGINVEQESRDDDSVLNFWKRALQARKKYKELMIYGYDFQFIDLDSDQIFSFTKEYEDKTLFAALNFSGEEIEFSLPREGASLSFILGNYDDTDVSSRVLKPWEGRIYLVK
structure (smiles),measurement,setting,value
"Cc1cc(-c2ccc(/N=N/c3ccc4c(S(=O)(=O)O)cc(S(=O)(=O)O)c(N)c4c3O)c(C)c2)ccc1/N=N/c1ccc2c(S(=O)(=O)O)cc(S(=O)(=O)O)c(N)c2c1O [Evans blue, reference compound]",IC50,"[1]; HEK293, read-out: IC50 (µM) against pseudovirus entry",22 ± 1.98 µM
C=CCc1cc(-c2cc(CC=C)c3oc(SCc4nnc(-c5cccc(C)c5)o4)nc3c2)c2oc(SCc3nnc(-c4cccc(C)c4)o3)nc2c1 [Compound 7l],inhibition mode towards α-glucosidase,[2],noncompetitive α-glucosidase inhibitor
same,survival rates of LO2 cells,[3],above 80%
C[C@H]1O[C@H](O[C@H]2[C@H](O)[C@@H](O)[C@@H](O[C@H]3[C@H](O)[C@@H](O)C(O)O[C@@H]3CO)O[C@@H]2CO)[C@H](O)[C@@H](O)[C@@H]1N[C@H]1C=C(CO)[C@@H](O)[C@H](O)[C@H]1O (stereo partly shown) [acarbose],Inhibition rate (%),[4],96.4 ± 0.5%
C=CCc1cc(CSc2nnc(-c3cccnc3)o2)c(O)c(-c2ccc(O)c(CC=C)c2)c1 [Compound 9r],survival rates of LO2 cells,[3],above 80%
C=CCc1cc(CSc2nnc(-c3ccccc3)o2)c(O)c(-c2ccc(O)c(CC=C)c2)c1 [Compound 9a],inhibition of SARS-CoV-2 pseudovirus entry,[1]; at 100 μM,almost completely inhibited
same,survival rates of LO2 cells,[3],above 80%
